From US3932512A, “Antiviral 1,2,3,4-tetrahydro-1,-alkano naphthalenamine derivatives” (priority 1972, dated 1976)
Like-named read-outs stand apart in the source and are kept apart here.

Experiments:
Influenza A2 /Aichi/3/68 = experiment: in vitro anti-myxovirus activity, influenza A2 /Aichi/3/68, G-2 cells (% inhibition of hemadsorption); format: cell-based, Influenza A2 /Aichi/3/68 (human); conditions: for inhibition at 40 µg/mL: 40 μg/ml; for inhibition at 30 µg/mL / inhibition at 50 µg/mL / inhibition at 60 µg/mL / inhibition at 70 µg/mL / inhibition at 80 µg/mL / inhibition at 90 µg/mL / inhibition at 100 µg/mL: Homo sapiens; for inhibition at 30 µg/mL: 30 μg/ml; for inhibition at 50 µg/mL: 50 μg/ml; for inhibition at 60 µg/mL: 60 μg/ml; for inhibition at 70 µg/mL: 70 μg/ml; for inhibition at 80 µg/mL: 80 μg/ml; for inhibition at 90 µg/mL: 90 μg/ml; for inhibition at 100 µg/mL: 100 μg/ml, read-out: % Inhibition
Influenza (swine) = experiment: cells; format: cell-based
[1] = cytotoxicity in G-2 cells; format: cell-based; conditions: human
Protocol: In preparing the compounds for testing, they were handled aseptically throughout. The compounds were dissolved in a minimum amount of a suitable solvent and the final dilutions were made up to the required volume in a complete culture medium used in assay and in concentration not exceeding the predetermined maximum non-toxic levels.
The cell culture used in all primary in vitro anti-myxovirus assays was an established cell line of the human conjunctiva (G-2 cells). The cytotoxic studies of each of the compounds were performed prior to testing for antiviral activity to determine level of response of the cells to the potentially toxic action of the compounds.

[2] = system: influenza A2 virus Aichi/2/68; experiment: preventive control of influenza A2 in mice, compound I at different levels; format: in vivo, influenza A2 virus Aichi/2/68 (in Charles River white mice)
Protocol: In the following experiment, compound I was tested at different levels for preventive control of influenza as follows:
Charles River white mice, starting weight: 10-12 g;
12 mice per group (24 mice as control).
Virus: Mice were inoculated intranasally with influenza
A2 virus Aichi/2/68, with a titer of 2,88 LD50,
Mice were divided into 5 groups and received
day intraperitoneally, once a day for 16 days
beginning one day prior to infection with the
virus. Mice were weighed each day before inocula-
tions and doses adjusted according to the actual
weight of each animal. The active compound was
suspended in phosphate buffered saline.

[3] = toxicity of in vitro active anti-myxovirus compounds in mice; conditions: mouse, in vivo
mice = experiment: as above
influenza viruses = experiment: relative antiviral activity in vitro; format: cell-based; conditions: words
[4] = 100 mg/kg, day 10 postinfection
[5] = 100 mg/kg, day 11 postinfection
[6] = 100 mg/kg, day 12 postinfection
[7] = 100 mg/kg, day 13 postinfection
[8] = 100 mg/kg, day 14 postinfection

## N[C@H]1C[C@@H]2C[C@H]1c1ccccc12 (relative stereo) [Compound I]
Influenza A2 /Aichi/3/68; 17.8 TCID50
  inhibition at 40 µg/mL: 13%
  inhibition at 30 µg/mL: 0%
  inhibition at 50 µg/mL: 30%
  inhibition at 60 µg/mL: 87%
  inhibition at 70 µg/mL: 90%
  inhibition at 80 µg/mL: 97%
  inhibition at 90 µg/mL: 97%
  inhibition at 100 µg/mL: 97%
Influenza A2 /Aichi/3/68; 178 TCID50
  inhibition at 40 µg/mL: 0%
  inhibition at 30 µg/mL: 0%
  inhibition at 50 µg/mL: 10%
  inhibition at 60 µg/mL: 37%
  inhibition at 70 µg/mL: 53%
  inhibition at 80 µg/mL: 77%
  inhibition at 90 µg/mL: 80%
  inhibition at 100 µg/mL: 90%
Influenza (swine); 40 μg/ml
  inhibition at 40 µg/mL: 0%
Influenza (swine); 50 μg/ml, listed as 1,2,3,4-TETRAHYDRO-1,4-[…]-ENDO-2-AMINE.HCl
  % Inhibition: 7%
Influenza (swine); 80 μg/ml
  inhibition at 80 µg/mL: 90%
Influenza (swine); 90 μg/ml
  inhibition at 90 µg/mL: 97%
Influenza (swine); 100 μg/ml
  inhibition at 100 µg/mL: 100%
[1]; 50% inhibition of cell growth, read-out: Cytotoxicity CTD50
  CC50: > 100 µg/mL
[1]; maximal non-toxic concentration, read-out: Cytotoxicity CTD0
  MNTC: > 100 µg/mL
[2]; 40 mg/kg
  Survivors %: 8.3%
  Survivors S/T: 1/12
[2]; 40 mg/kg, day 8 postinfection
  Cumulative mortality %: 8.3%
  Cumulative mortality N: 1
[2]; 40 mg/kg, day 9 postinfection
  Cumulative mortality %: 41.7%
  Cumulative mortality N: 5
[2]; 40 mg/kg, day 10 postinfection
  Cumulative mortality %: 58.3%
  Cumulative mortality N: 7
[2]; 40 mg/kg, day 11 postinfection
  Cumulative mortality %: 75.0%
  Cumulative mortality N: 9
[2]; 40 mg/kg, day 12 postinfection
  Cumulative mortality %: 83.3%
  Cumulative mortality N: 10
[2]; 40 mg/kg, day 13 postinfection
  Cumulative mortality %: 91.6%
  Cumulative mortality N: 11
[2]; 40 mg/kg, day 14 postinfection
  Cumulative mortality %: 91.6%
  Cumulative mortality N: 11
[2]; 55 mg/kg
  Survivors %: 8.3%
  Survivors S/T: 1/12
[2]; 55 mg/kg, day 8 postinfection
  Cumulative mortality %: 8.3%
  Cumulative mortality N: 1
[2]; 55 mg/kg, day 9 postinfection
  Cumulative mortality %: 16.7%
  Cumulative mortality N: 2
[2]; 55 mg/kg, day 10 postinfection
  Cumulative mortality %: 41.7%
  Cumulative mortality N: 5
[2]; 55 mg/kg, day 11 postinfection
  Cumulative mortality %: 58.3%
  Cumulative mortality N: 7
[2]; 55 mg/kg, day 12 postinfection
  Cumulative mortality %: 75.0%
  Cumulative mortality N: 9
[2]; 55 mg/kg, day 13 postinfection
  Cumulative mortality %: 91.6%
  Cumulative mortality N: 11
[2]; 55 mg/kg, day 14 postinfection
  Cumulative mortality %: 91.6%
  Cumulative mortality N: 11
[2]; 70 mg/kg
  Survivors %: 50.0%
  Survivors S/T: 6/12
[2]; 70 mg/kg, day 8 postinfection
  Cumulative mortality %: 8.3%
  Cumulative mortality N: 1
[2]; 70 mg/kg, day 9 postinfection
  Cumulative mortality %: 8.3%
  Cumulative mortality N: 1
[2]; 70 mg/kg, day 10 postinfection
  Cumulative mortality %: 41.7%
  Cumulative mortality N: 5
[2]; 70 mg/kg, day 11 postinfection
  Cumulative mortality %: 50.0%
  Cumulative mortality N: 6
[2]; 70 mg/kg, day 12 postinfection
  Cumulative mortality %: 50.0%
  Cumulative mortality N: 6
[2]; 70 mg/kg, day 13 postinfection
  Cumulative mortality %: 50.0%
  Cumulative mortality N: 6
[2]; 70 mg/kg, day 14 postinfection
  Cumulative mortality %: 50.0%
  Cumulative mortality N: 6
[2]; 85 mg/kg
  Survivors %: 50.0%
  Survivors S/T: 6/12
[2]; 85 mg/kg, day 8 postinfection
  Cumulative mortality %: 0%
  Cumulative mortality N: 0
[2]; 85 mg/kg, day 9 postinfection
  Cumulative mortality %: 8.3%
  Cumulative mortality N: 1
[2]; 85 mg/kg, day 10 postinfection
  Cumulative mortality %: 25.0%
  Cumulative mortality N: 3
[2]; 85 mg/kg, day 11 postinfection
  Cumulative mortality %: 33.3%
  Cumulative mortality N: 4
[2]; 85 mg/kg, day 12 postinfection
  Cumulative mortality %: 50.0%
  Cumulative mortality N: 6
[2]; 85 mg/kg, day 13 postinfection
  Cumulative mortality %: 50.0%
  Cumulative mortality N: 6
[2]; 85 mg/kg, day 14 postinfection
  Cumulative mortality %: 50.0%
  Cumulative mortality N: 6
[2]; 100 mg/kg
  Survivors %: 66.4%
  Survivors S/T: 8/12
[2]; 100 mg/kg, day 8 postinfection
  Cumulative mortality %: 0%
  Cumulative mortality N: 0
[2]; 100 mg/kg, day 9 postinfection
  Cumulative mortality %: 0%
  Cumulative mortality N: 0
[2]; [4]
  Cumulative mortality %: 16.7%
  Cumulative mortality N: 2
[2]; [5]
  Cumulative mortality %: 25.0%
  Cumulative mortality N: 3
[2]; [6]
  Cumulative mortality %: 33.3%
  Cumulative mortality N: 4
[2]; [7]
  Cumulative mortality %: 33.3%
  Cumulative mortality N: 4
[2]; [8]
  Cumulative mortality %: 33.3%
  Cumulative mortality N: 4
[3]
  MTD: ≤ 100 mg/kg
[3]; ip, 50% toxic dose LD50, acute, I/P, acute
  LD50: 100 mg/kg
[3]; ip, 50% toxic dose LD50, subacute, I/P, subacute
  LD50: 100 mg/kg
[3]; po, 50% toxic dose LD50, acute, P/O, acute
  LD50: 275 mg/kg
[3]; po, 50% toxic dose LD50, subacute, P/O, subacute
  LD50: 250 to 275 mg/kg
mice; I/P
  Maximal non-toxic dose LD0, acute: 125 mg/kg
  Maximal non-toxic dose LD0, subacute: 100 mg/kg
mice; P/O
  Maximal non-toxic dose LD0, acute: 250 mg/kg
  Maximal non-toxic dose LD0, subacute: 225 mg/kg

## C[C@@H]1[C@H](N)[C@H]2C[C@@H]1c1ccccc12 (relative stereo) [IV, 1,2,3,4-tetrahydro-1,4-methanonaphthalen-endo-3-methyl-endo-2-amine]
Influenza viruses
  relative antiviral activity: relatively low antiviral activity
